We go through 25 compounds from US20250382305A1 (PTC THERAPEUTICS, INC., priority 2022, published 2025).

The subject of one test is ATXN3 pre-mRNA. The test is described as follows: RT-qPCR Assay to Quantify Exon 4 Skipping in ATXN3 pre-mRNA in Cells. The test is classed as cell-based. The conditions noted are these: percent exon 4 skipping in ATXN3 pre-mRNA, RT-qPCR of cell lysates; average IC50. The procedure, abridged:
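IC50 derives from a dose-response fit of percent exon 4 skipping, quantified by RT-qPCR on crude lysates. Compounds tested as 7-point 3.16-fold dilutions in duplicate; cells (10,000/well) were exposed for 24 h at 37 °C before lysis.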

The subject of test [1] is Total ATXN3 (tATXN3) protein. The test is described as follows: Endogenous Total ATXN3 (tATXN3) Protein Assay (MSD immunoassay of cell lysates). The test is classed as cell-based. The conditions noted are these: average IC50, total ATXN3 protein in cell lysate after 48 h with compound (Table 1). In a few lines: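 By electrochemiluminescent MSD sandwich immunoassay (mouse monoclonal capture, rabbit monoclonal and SULFO-TAG anti-rabbit detection), endogenous ATXN3 was quantified in lysates of cells treated 48 h at 37° C at 10,000 cells/well. Treatment used a 7-point 3.16-fold duplicate dilution series, with average IC50 grouped into star categories.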

For `CC#CCNc1cc(Cl)nc2c(Br)c([C@@H]3CC=CC[C@H]3N)sc12` [Compound 429, 2-((1R,6R)-6-aminocyclohex-3-en-1-yl)-3-bromo-N-(but-2-yn-1-yl)-5-chlorothieno[3,2-b]pyridin-7-amine], the IC50 (in the test on ATXN3 pre-mRNA; in test [1]) was no more than 30 nM throughout.
For the compound `Cc1c([C@H]2CC=CC[C@@H]2N)sc2c(NCc3ccsc3)cc(Cl)nc12` [Compound 247, 2-((1S,6S)-6-aminocyclohex-3-en-1-yl)-5-chloro-3-methyl-N-(thiophen-3-ylmethyl)thieno[3,2-b]pyridin-7-amine], the IC50 (in the test on ATXN3 pre-mRNA; in test [1]) was 30 to 300 nM each time.
Consider `N[C@H]1CCCC[C@@H]1c1sc2c(NCc3ccccc3)cc(Cl)nc2c1Cl` [Compound 237, 2-((1S,2S)-2-aminocyclohexyl)-N-benzyl-3,5-dichlorothieno[3,2-b]pyridin-7-amine], for which the IC50 (in the test with ATXN3 pre-mRNA; in test [1]) was no more than 30 nM in each case.
Take `N[C@@H]1CC=CC[C@H]1c1sc2c(NCc3cccs3)cc(Cl)nc2c1I.N[C@H]1CC=CC[C@@H]1c1sc2c(NCc3cccs3)cc(Cl)nc2c1I` (mixture of isomers) [Compound 209, 2-((1R,6R)-6-aminocyclohex-3-en-1-yl)-5-chloro-3-iodo-N-(thiophen-2-ylmethyl)thieno[3,2-b]pyridin-7-amine and 2-((1S,6S)-6-aminocyclohex-3-en-1-yl)-5-chloro-3-iodo-N-(thiophen-2-ylmethyl)thieno[3,2-b]pyridin-7-amine]: the IC50 (with ATXN3 pre-mRNA; in test [1]) was no more than 30 nM each time.
For the compound `CN(Cc1ccco1)c1cc(Cl)nc2c(C#CCCCO)c([C@@H]3CC=CC[C@H]3N)sc12` [Compound 452, 5-(2-((1R,6R)-6-aminocyclohex-3-en-1-yl)-5-chloro-7-((furan-2-ylmethyl)(methyl)amino)thieno[3,2-b]pyridin-3-yl)pent-4-yn-1-ol], the IC50 (in the test on ATXN3 pre-mRNA; in test [1]) was 30 to 300 nM each time.
With `N[C@@H]1CC=CC[C@H]1c1sc2c(NCc3ccccc3F)cc(Cl)nc2c1Br` [Compound 411, 2-((1R,6R)-6-aminocyclohex-3-en-1-yl)-3-bromo-5-chloro-N-(2-fluorobenzyl)thieno[3,2-b]pyridin-7-amine], the IC50 (in the test with ATXN3 pre-mRNA; in test [1]) was 30 to 300 nM throughout.
`CC#CCNc1cc(Cl)nc2c(Br)c([C@H]3CC(C)=C(C)C[C@@H]3N)sc12` [Compound 249, 2-((1S,6S)-6-amino-3,4-dimethylcyclohex-3-en-1-yl)-3-bromo-N-(but-2-yn-1-yl)-5-chlorothieno[3,2-b]pyridin-7-amine]: the IC50 is no more than 30 nM with ATXN3 pre-mRNA and 30 to 300 nM in test [1].
As to `Cc1c([C@H]2CCCCCC[C@@H]2N)sc2c(NCc3cccs3)cc(Cl)nc12` [Compound 94, 2-((1S,2S)-2-aminocyclooctyl)-5-chloro-3-methyl-N-(thiophen-2-ylmethyl)thieno[3,2-b]pyridin-7-amine], the IC50 in the test with ATXN3 pre-mRNA lay in the range of 30 to 300 nM; in test [1], 300 to 1000 nM.
In the same order, the values of `[2H]C1=C([2H])C([2H])([2H])[C@H](c2sc3c(NCc4ccccc4)cc(Cl)nc3c2C)[C@@H](N)C1([2H])[2H]` [Compound 292, 2-((1S,6S)-6-aminocyclohex-3-en-1-yl-2,2,3,4,5,5-d6)-N-benzyl-5-chloro-3-methylthieno[3,2-b]pyridin-7-amine] are 30 to 300 nM and 30 to 300 nM.
In the case of `Cc1c([C@@H]2CC=CC[C@H]2N)sc2c(NCc3ccncc3F)nc(Cl)nc12` [Compound 435, 6-((1R,6R)-6-aminocyclohex-3-en-1-yl)-2-chloro-N-((3-fluoropyridin-4-yl)methyl)-7-methylthieno[3,2-d]pyrimidin-4-amine], the IC50 was no more than 30 nM in the test with ATXN3 pre-mRNA and 30 to 300 nM in test [1].
In the same order, the values of `N[C@H]1CC=CC[C@@H]1c1sc2c(NCc3cccs3)cc(Cl)nc2c1Cl` [Compound 196, 2-((1S,6S)-6-aminocyclohex-3-en-1-yl)-3,5-dichloro-N-(thiophen-2-ylmethyl)thieno[3,2-b]pyridin-7-amine] are no more than 30 nM and no more than 30 nM.
Regarding `CC#Cc1c(C2[C@@H](N)CCCC2(F)F)sc2c(NCc3cccs3)cc(Cl)nc12.CC#Cc1c(C2[C@H](N)CCCC2(F)F)sc2c(NCc3cccs3)cc(Cl)nc12` (mixture of isomers) [Compound 208, 2-((6R)-6-amino-2,2-difluorocyclohexyl)-5-chloro-3-(prop-1-yn-1-yl)-N-(thiophen-2-ylmethyl)thieno[3,2-b]pyridin-7-amine and 2-((6S)-6-amino-2,2-difluorocyclohexyl)-5-chloro-3-(prop-1-yn-1-yl)-N-(thiophen-2-ylmethyl)thieno[3,2-b]pyridin-7-amine], the IC50 (in the test on ATXN3 pre-mRNA; in test [1]) was no more than 30 nM throughout.
On to `Cc1c([C@H]2COCC[C@@H]2N)sc2c(NCc3ccco3)cc(Cl)nc12` [Compound 260, 2-((3R,4S)-4-aminotetrahydro-2H-pyran-3-yl)-5-chloro-N-(furan-2-ylmethyl)-3-methylthieno[3,2-b]pyridin-7-amine], for which the IC50 in the test on ATXN3 pre-mRNA was no more than 30 nM; in test [1], 30 to 300 nM.
In the same order, the values of “2-((1R,6R)-6-aminocyclohex-3-en-1-yl)-3-bromo-5-chloro-N-(cyclopent-1-en-1-ylmethyl)thieno[3,2-b]pyridin-7-amine and 2-((1S,6S)-6-aminocyclohex-3-en-1-yl)-3-bromo-5-chloro-N-(cyclopent-1-en-1-ylmethyl)thieno[3,2-b]pyridin-7-amine [Compound 332]” are 30 to 300 nM and 30 to 300 nM.
The matching figures for `N[C@H]1CCC[C@@H]1c1sc2c(NCc3ccco3)cc(Cl)nc2c1Br` [Compound 165, 2-((1S,2S)-2-aminocyclopentyl)-3-bromo-5-chloro-N-(furan-2-ylmethyl)thieno[3,2-b]pyridin-7-amine]: no more than 30 nM and no more than 30 nM.
In the case of “2-((1S,2S)-2-aminocyclohexyl)-5-chloro-3-(fluoromethyl)-N-(thiophen-2-ylmethyl)thieno[3,2-b]pyridin-7-amine and 2-((1R,2R)-2-aminocyclohexyl)-5-chloro-3-(fluoromethyl)-N-(thiophen-2-ylmethyl)thieno[3,2-b]pyridin-7-amine [Compound 400]”, the IC50 (in the test with ATXN3 pre-mRNA; in test [1]) was 300 to 1000 nM in each case.
Regarding `N[C@@H]1CCCCC[C@@H]1c1cc2nc(Cl)cc(NCc3cccs3)c2s1` [Compound 88, 2-((1S,2R)-2-aminocycloheptyl)-5-chloro-N-(thiophen-2-ylmethyl)thieno[3,2-b]pyridin-7-amine], the IC50 (with ATXN3 pre-mRNA; in test [1]) was greater than 1000 nM in each case.
For “2-((1R,6S)-6-amino-2,2-difluorocyclohexyl)-3-bromo-N-(but-2-yn-1-yl)-5-chlorothieno[3,2-b]pyridin-7-amine and 2-((1S,6R)-6-amino-2,2-difluorocyclohexyl)-3-bromo-N-(but-2-yn-1-yl)-5-chlorothieno[3,2-b]pyridin-7-amine [Compound 370]”, the concentration for half-maximal inhibition (IC50) (with ATXN3 pre-mRNA; in test [1]) was 30 to 300 nM each time.
In the case of `N[C@H]1CCCCCC[C@H]1c1cc2nc(Cl)cc(NCc3cccs3)c2s1` [Compound 104, 2-((1R,2S)-2-aminocyclooctyl)-5-chloro-N-(thiophen-2-ylmethyl)thieno[3,2-b]pyridin-7-amine], the IC50 (in the test with ATXN3 pre-mRNA; in test [1]) was greater than 1000 nM in each case.
For the compound `N[C@@H]1CC=CC[C@H]1c1sc2c(NCc3nccs3)cc(Cl)nc2c1Cl` [Compound 380, 2-((1R,6R)-6-aminocyclohex-3-en-1-yl)-3,5-dichloro-N-(thiazol-2-ylmethyl)thieno[3,2-b]pyridin-7-amine], the IC50 (in the test on ATXN3 pre-mRNA; in test [1]) was 30 to 300 nM each time.
As for `CC#CCNc1cc(Cl)nc2c(Br)c([C@H]3CCCC[C@@H]3N)sc12` [Compound 301, 2-((1S,2S)-2-aminocyclohexyl)-3-bromo-N-(but-2-yn-1-yl)-5-chlorothieno[3,2-b]pyridin-7-amine], the IC50 (in the test on ATXN3 pre-mRNA; in test [1]) was 30 to 300 nM in each case.
As for `N[C@H]1CCCN(c2ccccc2)[C@@H]1c1sc2c(NCc3cccs3)cc(Cl)nc2c1Br` (mixture of isomers) [Compound 124, 2-((2R,3R)-3-amino-1-phenylpiperidin-2-yl)-3-bromo-5-chloro-N-(thiophen-2-ylmethyl)thieno[3,2-b]pyridin-7-amine and 2-((2S,3S)-3-amino-1-phenylpiperidin-2-yl)-3-bromo-5-chloro-N-(thiophen-2-ylmethyl)thieno[3,2-b]pyridin-7-amine], the IC50 (in the test on ATXN3 pre-mRNA; in test [1]) was greater than 1000 nM throughout.
With `N[C@H]1CCCC[C@@H]1c1cc2nc(Cl)cc(NCc3cccs3)c2s1` [Compound 21, 2-((1S,2S)-2-aminocyclohexyl)-5-chloro-N-(thiophen-2-ylmethyl)thieno[3,2-b]pyridin-7-amine], the IC50 (with ATXN3 pre-mRNA; in test [1]) was 30 to 300 nM in each case.
Take `N[C@H]1CC=CC[C@@H]1c1sc2c(NCc3cccs3)cc(Cl)nc2c1C#CCCCCO` [Compound 235, 6-(2-((1S,6S)-6-aminocyclohex-3-en-1-yl)-5-chloro-7-((thiophen-2-ylmethyl)amino)thieno[3,2-b]pyridin-3-yl)hex-5-yn-1-ol]: the 50% inhibitory concentration (IC50) (in the test with ATXN3 pre-mRNA; in test [1]) was no more than 30 nM throughout.
Turning to `C#Cc1c([C@H]2CCCC[C@@H]2N)sc2c(NCc3ccccc3F)cc(Cl)nc12` [Compound 311, 2-((1S,2S)-2-aminocyclohexyl)-5-chloro-3-ethynyl-N-(2-fluorobenzyl)thieno[3,2-b]pyridin-7-amine], the IC50 (in the test on ATXN3 pre-mRNA; in test [1]) was 30 to 300 nM each time.
